# Test results: patent US10500166B2, “Methods for the treatment of erectile dysfunction using fispemifene” (QUATRX PHARMACEUTICALS, priority 2007, dated 2019)
# Key:
# [1] = test system: SHBG (sex hormone-binding globulin); assay: Example 3 study in hypogonadal men: serum sex hormone binding globulin (ITT); type: in vivo, human; conditions: Baseline (Visit 2)
# Protocol: (§1) A randomized, double-blind, placebo controlled, parallel-group study of once-daily doses of fispemifene (100, 200, and 300 mg/day) given for 4 weeks was conducted in a population of hypogonadal men. Subjects were required to meet all of the following inclusion criteria at screening and prior to randomization to be eligible for the study:
# (§2) There were 77 subjects total. The number of subjects randomized to the 100 mg fispemifene, 200 mg fispemifene, 300 mg fispemifene, and placebo arms were 21, 21, 19, and 16, respectively.
# (§3) Subjects were randomly assigned to one of four treatment groups in a 1:1:1:1 ratio: • Treatment A (100 mg): fispemifene 100 mg+placebo+placebo; • Treatment B (200 mg): fispemifene 100 mg+fispemifene 100 mg+placebo; • Treatment C (300 mg): fispemifene 100 mg+fispemifene 100 mg+fispemifene 100 mg; and • Treatment D (Placebo): placebo+placebo+placebo.
# (§4) Subjects took one dose (three capsules) of study medication once a day at home for 4 weeks. Capsules were to be taken in the morning immediately after breakfast, with the exception of the morning of the Week 4 visit. Capsules were not to be taken on the morning of the Week 4 visit because trough plasma levels of fispemifene were determined by a blood sample taken at this visit. Each subject was randomly assigned to treatment with one of the 3 different dose regimens of fispemifene or placebo vehicle. Each subject received a 4 week supply of study drug.
# (§5) Blood samples were taken from the subjects within 1 week prior to dosing with study drug to establish baseline values; after 2 and 4 weeks of randomization; and 2 weeks after the last dose of study drug. Serum was prepared from those samples and used to determine the mean % change from baseline in total testosterone, free testosterone, SHBG (sex hormone-binding globulin), DHT (dihydrotestosterone), E2 (estradiol), LH (luteinizing hormone), FSH (follicle stimulating hormone), and inhibin B.
# (§6) 3. Percent change from baseline in SHBG, DHT, E2, LH, FSH, inhibin B, and testosterone/E2 ratio at Weeks 2, 4, and 6.
# [2] = test system: FSH (follicle stimulating hormone); assay: Example 3 study in hypogonadal men: serum FSH (ITT); type: in vivo, human; conditions: for FSH % Change from Baseline to Week 2, Max / FSH % Change from Baseline to Week 2, Mean ± SD / FSH % Change from Baseline to Week 2, Median / FSH % Change from Baseline to Week 2, Min / FSH % Change from Baseline to Week 4, Max / FSH % Change from Baseline to Week 4, Mean ± SD / FSH % Change from Baseline to Week 4, Median / FSH % Change from Baseline to Week 4, Min / FSH % Change from Baseline to Week 6, Max / FSH % Change from Baseline to Week 6, Mean ± SD / FSH % Change from Baseline to Week 6, Median / FSH % Change from Baseline to Week 6, Min: (Week minus Baseline) divided by Baseline, LOCF; for FSH % Change from Baseline to Week 2, Max / FSH % Change from Baseline to Week 2, Mean ± SD / FSH % Change from Baseline to Week 2, Median / FSH % Change from Baseline to Week 2, Min / FSH % Change from Baseline to Week 4, Max / FSH % Change from Baseline to Week 4, Mean ± SD / FSH % Change from Baseline to Week 4, Median / FSH % Change from Baseline to Week 4, Min / FSH % Change from Baseline to Week 6, Max / FSH % Change from Baseline to Week 6, Mean ± SD / FSH % Change from Baseline to Week 6, Median / FSH % Change from Baseline to Week 6, Min / FSH Actual Value at Baseline (Visit 2), Max / FSH Actual Value at Baseline (Visit 2), Mean ± SD / FSH Actual Value at Baseline (Visit 2), Median / FSH Actual Value at Baseline (Visit 2), Min: ITT
# Protocol: as §1, §2, §3, §4, §5, §6
structure (smiles),measurement,setting,value
"OCCOCCOc1ccc(/C(=C(/CCCl)c2ccccc2)c2ccccc2)cc1 [Fispemifene, (Z)-2-{2-[4-(4-Chloro-1,2-diphenylbut-1-enyl)phenoxy]ethoxy}ethanol]","Sex Hormone Binding Globulin, Max",[1]; 100 mg/day,35.0 nmol/L
same,"Sex Hormone Binding Globulin, Mean ± SD",[1]; 100 mg/day,18.4 ± 6.96 nmol/L
same,"Sex Hormone Binding Globulin, Median",[1]; 100 mg/day,17.0 nmol/L
same,"Sex Hormone Binding Globulin, Min",[1]; 100 mg/day,8.5 nmol/L
same,"Sex Hormone Binding Globulin, Max",[1]; 200 mg/day,51.0 nmol/L
same,"Sex Hormone Binding Globulin, Mean ± SD",[1]; 200 mg/day,19.5 ± 11.12 nmol/L
same,"Sex Hormone Binding Globulin, Median",[1]; 200 mg/day,18.0 nmol/L
same,"Sex Hormone Binding Globulin, Min",[1]; 200 mg/day,3.7 nmol/L
same,"Sex Hormone Binding Globulin, Max",[1]; 300 mg/day,48.0 nmol/L
same,"Sex Hormone Binding Globulin, Mean ± SD",[1]; 300 mg/day,20.0 ± 10.28 nmol/L
same,"Sex Hormone Binding Globulin, Median",[1]; 300 mg/day,19.0 nmol/L
same,"Sex Hormone Binding Globulin, Min",[1]; 300 mg/day,5.6 nmol/L
same,"FSH % Change from Baseline to Week 2, Max",[2]; 100 mg,0.76
same,"FSH % Change from Baseline to Week 2, Mean ± SD",[2]; 100 mg,0.29 ± 0.222
same,"FSH % Change from Baseline to Week 2, Median",[2]; 100 mg,0.27
same,"FSH % Change from Baseline to Week 2, Min",[2]; 100 mg,−0.13
same,"FSH % Change from Baseline to Week 4, Max",[2]; 100 mg,1.12
same,"FSH % Change from Baseline to Week 4, Mean ± SD",[2]; 100 mg,0.28 ± 0.296
same,"FSH % Change from Baseline to Week 4, Median",[2]; 100 mg,0.24
same,"FSH % Change from Baseline to Week 4, Min",[2]; 100 mg,−0.09
same,"FSH % Change from Baseline to Week 6, Max",[2]; 100 mg,0.610
same,"FSH % Change from Baseline to Week 6, Mean ± SD",[2]; 100 mg,0.043 ± 0.2302
same,"FSH % Change from Baseline to Week 6, Median",[2]; 100 mg,0.000
same,"FSH % Change from Baseline to Week 6, Min",[2]; 100 mg,−0.345
same,"FSH Actual Value at Baseline (Visit 2), Max",[2]; 100 mg,14.90 IU/L
same,"FSH Actual Value at Baseline (Visit 2), Mean ± SD",[2]; 100 mg,649 ± 3.738 IU/L
same,"FSH Actual Value at Baseline (Visit 2), Median",[2]; 100 mg,5.00 IU/L
same,"FSH % Change from Baseline to Week 2, Max",[2]; 200 mg,0.60
same,"FSH % Change from Baseline to Week 2, Mean ± SD",[2]; 200 mg,0.33 ± 0.147
same,"FSH % Change from Baseline to Week 2, Median",[2]; 200 mg,0.28
same,"FSH % Change from Baseline to Week 2, Min",[2]; 200 mg,0.03
same,"FSH % Change from Baseline to Week 4, Max",[2]; 200 mg,0.58
same,"FSH % Change from Baseline to Week 4, Mean ± SD",[2]; 200 mg,0.32 ± 0.157
same,"FSH % Change from Baseline to Week 4, Median",[2]; 200 mg,0.33
same,"FSH % Change from Baseline to Week 4, Min",[2]; 200 mg,0.02
same,"FSH % Change from Baseline to Week 6, Max",[2]; 200 mg,0.442
same,"FSH % Change from Baseline to Week 6, Mean ± SD",[2]; 200 mg,0.050 ± 0.1657
same,"FSH % Change from Baseline to Week 6, Median",[2]; 200 mg,0.022
same,"FSH % Change from Baseline to Week 6, Min",[2]; 200 mg,−0.167
same,"FSH Actual Value at Baseline (Visit 2), Max",[2]; 200 mg,14.20 IU/L
same,"FSH Actual Value at Baseline (Visit 2), Mean ± SD",[2]; 200 mg,5.91 ± 3.054 IU/L
same,"FSH Actual Value at Baseline (Visit 2), Median",[2]; 200 mg,5.20 IU/L
same,"FSH Actual Value at Baseline (Visit 2), Min",[2]; 200 mg,2.40 IU/L
same,"FSH % Change from Baseline to Week 2, Max",[2]; 300 mg,0.78
same,"FSH % Change from Baseline to Week 2, Mean ± SD",[2]; 300 mg,0.36 ± 0.233
same,"FSH % Change from Baseline to Week 2, Median",[2]; 300 mg,0.31
same,"FSH % Change from Baseline to Week 2, Min",[2]; 300 mg,−0.21
same,"FSH % Change from Baseline to Week 4, Max",[2]; 300 mg,0.60
same,"FSH % Change from Baseline to Week 4, Mean ± SD",[2]; 300 mg,0.29 ± 0.206
same,"FSH % Change from Baseline to Week 4, Median",[2]; 300 mg,0.28
same,"FSH % Change from Baseline to Week 4, Min",[2]; 300 mg,−0.24
same,"FSH % Change from Baseline to Week 6, Max",[2]; 300 mg,0.395
same,"FSH % Change from Baseline to Week 6, Mean ± SD",[2]; 300 mg,−0.010 ± 0.1786
same,"FSH % Change from Baseline to Week 6, Median",[2]; 300 mg,−0.043
same,"FSH % Change from Baseline to Week 6, Min",[2]; 300 mg,−0.255
same,"FSH Actual Value at Baseline (Visit 2), Max",[2]; 300 mg,12.30 IU/L
same,"FSH Actual Value at Baseline (Visit 2), Mean ± SD",[2]; 300 mg,5.08 ± 2.931 IU/L
same,"FSH Actual Value at Baseline (Visit 2), Median",[2]; 300 mg,4.10 IU/L
same,"FSH Actual Value at Baseline (Visit 2), Min",[2]; 300 mg,1.80 IU/L
same,effect on serum FSH levels,"[2]; hypogonadal men, 100-300 mg/day for 4 weeks",increased
